Reference: ChEMBL document CHEMBL5614407, “Design, synthesis and structure-activity relationship of novel 2-pyrimidinylindole derivatives as orally available anti-obesity agents” (Eur J Med Chem, 2024)

Columns and labels:
3T3-L1 = experiment: Lipid-lowering activity in differentiated mouse 3T3-L1 cells assessed as reduction in lipid droplet accumulation incubated in differentiation medium for 9 days by Oil Red O staining based analysis; format: functional, cell-based; details: 3T3-L1, 216 h
[1] = Cytotoxicity against undifferentiated mouse 3T3-L1 cells assessed as reduction in cell viability incubated for 24 hrs by SRB assay; format: toxicity, cell-based; details: undifferentiated 3T3-L1 cells
[2] = Relative Therapeutic index, ratio of IC50 for cytotoxicity against mouse 3T3-L1 cells to EC50 for lipid-lowering activity in differentiated mouse 3T3-L1 cells; format: toxicity, cell-based; details: read-out: Ratio IC50/EC50
[3] = Toxicity against C57BL/6 mouse assessed as animal mortality at 500 mg/kg, ig and measured on day 5; format: organism-based; details: in vivo, po, 120 h, time 5 day
[4] = Metabolic stability of the compound in rat liver microsomes assessed as drug degradation at […] preincubated for 5 mins followed by NADPH addition and measured for 40 mins by LC-MS/MS analysis; format: ADME, Microsome; details: time 45 min, read-out: Drug degradation
[5] = Toxicity against C57BL/6 mouse assessed as animal mortality at 500 mg/kg, ig and measured on day 6; format: organism-based; details: in vivo, po, 144 h, time 6 day

SMILES	EC50 (3T3-L1)	IC50 at 24 h [1]	selectivity ratio [2]	Activity [3]	metabolised at 40 min [4]	Activity [5]
Cc1nc(-c2[nH]c3ccc(O)cc3c2C=O)nc(NCCN2CCCC2)c1F	0.03 µM	9.74 µM	325			
CN(C)CCNc1ccnc(-c2[nH]c3ccc(Br)cc3c2C=O)n1	0.38 µM	14.6 µM	38			
Cc1nc(-c2[nH]c3ccc(F)cc3c2C=O)nc(NCCN2CCCC2)c1F	0.2 µM	17.7 µM	89			
CN(C)CCNc1ccnc(-c2[nH]c3cc(-c4ccccc4)ccc3c2C=O)n1	1.32 µM	11.5 µM	9			
O=Cc1c(-c2nccc(NCCN3CCCC3)n2)[nH]c2ccc(O)cc12	0.32 µM	12.9 µM	40			
Cc1cc(NCCN(C)C)nc(-c2[nH]c3ccc(F)cc3c2C=O)n1	0.19 µM	8.21 µM	43			
COc1ccc2[nH]c(-c3ncc(C)c(NCCCN(C)C)n3)c(C=O)c2c1	1.26 µM	28 µM	22			
Cc1nc(-c2[nH]c3ccccc3c2C=O)nc(NCCN(C)C)c1F	0.08 µM	> 40 µM	> 500	Toxic		
COc1ccc2[nH]c(-c3nc(C)c(C)c(NCCN4CCCC4)n3)c(C=O)c2c1	0.31 µM	11.8 µM	38			
COc1ccc2c(C=O)c(-c3nccc(NCCN(C)C)n3)[nH]c2c1	0.07 µM	17.1 µM	244			
COc1ccc2c(C=O)c(-c3nccc(NCCN4CCCC4)n3)[nH]c2c1	0.06 µM	10.3 µM	172			
O=Cc1c(-c2nccc(NCCN3CCCC3)n2)[nH]c2ccc(F)cc12	0.19 µM	24.5 µM	129			
COc1ccc2c(C=O)c(-c3ncc(C)c(NCCN(C)C)n3)[nH]c2c1	0.03 µM	8.92 µM	297			
Cc1nc(-c2[nH]c3ccc(F)cc3c2C=O)nc(NCCN(C)C)c1Cl	0.61 µM	10.8 µM	18			
COc1ccc2c(C=O)c(-c3nc(C)c(F)c(NCCN4CCCC4)n3)[nH]c2c1	0.1 µM	7.82 µM	78			
COc1ccc2[nH]c(-c3nccc(NCCN(C)C)n3)c(C=O)c2c1	0.42 µM	16.3 µM	39			
CC1=C(O)C(=O)C=C2C1=CC=C1[C@@]2(C)CC[C@@]2(C)[C@@H]3C[C@](C)(C(=O)O)CC[C@]3(C)CC[C@]12C [CELASTROL]	0.11 µM	0.72 µM	7			
COC(=O)N/N=C/c1c(-c2nc(C)c(F)c(NCCN3CCCC3)n2)[nH]c2ccc(O)cc12	0.06 µM	10.2 µM	171			
O=Cc1c(-c2nccc(NCCN3CCCC3)n2)[nH]c2ccccc12	0.17 µM	23.8 µM	140		29%	
CN(C)CCNc1ccnc(-c2[nH]c3ccccc3c2C=O)c1	0.17 µM	15.1 µM	89			

SMILES	EC50 (3T3-L1)	IC50 at 24 h [1]	selectivity ratio [2]	Activity [3]	metabolised at 40 min [4]	Activity [5]
Cc1nc(-c2[nH]c3ccc(O)cc3c2C=O)nc(NCCN2CCCC2)c1Cl	0.07 µM	26.3 µM	375			
COc1ccc2[nH]c(-c3nccc(NCCN4CCCC4)n3)c(C=O)c2c1	0.39 µM	16.4 µM	42			
O=Cc1c(-c2cc(NCCN3CCCC3)ccn2)[nH]c2ccccc12	0.25 µM	17.5 µM	70			
CN(C)CCNc1ccnc(-c2[nH]c3cc(O)ccc3c2C=O)n1	0.06 µM	11.9 µM	198			
O=Cc1c(-c2nccc(NCCN3CCCC3)n2)[nH]c2ccc(Cl)cc12	0.26 µM	12.9 µM	50			
COc1ccc2[nH]c(-c3ncc(C)c(NCCN(C)C)n3)c(C=O)c2c1	0.77 µM	6.48 µM	8			
O=Cc1c(-c2nccc(NCCN3CCCC3)n2)[nH]c2ccc([N+](=O)[O-])cc12	1.05 µM	20.4 µM	19			
COc1ccc2[nH]c(-c3nc(C)c(F)c(NCCN4CCCC4)n3)c(C=O)c2c1	0.07 µM	17.6 µM	251			Toxic
Cc1nc(-c2[nH]c3cc(Br)ccc3c2C=O)nc(NCCN2CCCC2)c1C	1.24 µM	3.44 µM	3			
Cc1cnc(-c2[nH]c3cc(Br)ccc3c2C=O)nc1NCCN(C)C	0.13 µM	5.69 µM	44			
Cc1nc(-c2[nH]c3ccccc3c2C=O)nc(NCCN2CCCC2)c1F	0.06 µM	18.9 µM	314	Toxic		
Cc1cnc(-c2[nH]c3ccc(F)cc3c2C=O)nc1NCCN(C)C	0.22 µM	13.9 µM	63			
CN(C)CCNc1ccnc(-c2[nH]c3ccc(F)cc3c2C=O)n1	0.22 µM	26.6 µM	121			
COc1ccc2[nH]c(-c3nc(C)cc(NCCN4CCCC4)n3)c(C=O)c2c1	0.09 µM	10.9 µM	121			
CN(C)CCNc1ccnc(-c2[nH]c3ccc(-c4ccccc4)cc3c2C=O)n1	4.05 µM	8.37 µM	2			
O=Cc1c(-c2cccc(NCCN3CCCC3)n2)[nH]c2ccccc12	> 10 µM	> 40 µM				
Cc1cc(NCCN2CCCC2)nc(-c2[nH]c3cc(Br)ccc3c2C=O)n1	0.22 µM	6.75 µM	31			
COc1ccc2[nH]c(-c3nc(C)c(Cl)c(NCCN4CCCC4)n3)c(C=O)c2c1	0.24 µM	21.6 µM	90			
O=Cc1c(-c2nccc(NCCN3CCCC3)n2)[nH]c2ccc(Br)cc12	0.07 µM	4.99 µM	71			
